# Patent US5770587A, “Antifungal agents” (Merck & Co., Inc., priority 1996, dated 1998)
# How the values were obtained:
# Format in all cases: cell-based
# Candida albicans (CA2) = assay: broth microdilution assay (MIC/MFC)
# Experimental: (§1) In the microbroth dilution assay, microorganisms were selected by streaking a yeast culture on Sabouraud dextrose agar (SDA) incubating for 24-48 hours at 35°-37° C., thereafter selected 3 to 5 characteristic colonies and transferring to a fresh plate and incubating under similar conditions. From the regrowth, 3 to 5 colonies were selected and suspended in 10 milliliters of YM broth (Difco) and incubated for 4 hours at 35°-37° C. shaking at 225 rpm. The 4 hour broth cultures were adjusted optically to 86% transmission resulting in a concentration of 1-5×10^6 cfu/ml which was further diluted 1:100 in YNBD (yeast nitrogen base with 1 % dextrose) to obtain a concentration of 1-5×10^4 cfu/ml for use as inocula.
# (§2) The test compounds, Compounds I and II, were dissolved at 512 μg/ml in 10% DMSO and diluted 2× into the first well to achieve a concentration of 256 μg/ml at 5% DMSO in the first well. Compounds are subsequently serially diluted 2× and cell suspension is added to each well resulting in an additional 2× dilution of compound. 75 μl of said solution is delivered to each well in column 1 of a 96-well, U-bottomed microtiter plate. The compounds in column 1 were then serially diluted two-fold to yield concentrations from 128 μg/ml to 0.06 μg/ml.
# (§3) The plates containing the diluted compounds were then inoculated with 75 μl/well of the appropriate microorganism and incubated for 48 hours at 35°-37° C. with MIC (minimum inhibitory concentration) determinations carried out after 24 hours of incubation (except Cryptococcus strains which are read at 48 hours). Growth and sterility controls for each organism and sterility checks for the compounds also were carried out.
# (§4) After recording MICs at 24 hours, the microtiter plates were shaken gently to resuspend the cells. A 1.5 μl sample was transferred from each well of the 96-well microtiter plate to a single reservoir inoculum plate containing SDA. The inoculated SDA and corresponding microtiter plates were incubated for 24 hours at 35°-37° C. For Cryptococcus neoformans, SDA plates were inoculated at 48 hours after recording MICs and incubated 48 hours before reading the MFC. MFC is the lowest concentration of compound at which either no growth or growth of ≤4 colonies occur.
# [1] = test system: Candida albicans (CLY539); assay: broth microdilution assay (MIC/MFC)
# Experimental: as §1, §2, §3, §4
# [2] = test system: Candida albicans (MY1055); assay: broth microdilution assay (MIC/MFC)
# Experimental: as §1, §2, §3, §4
# [3] = test system: Candida glabrata (MY1381); assay: broth microdilution assay (MIC/MFC)
# Experimental: as §1, §2, §3, §4
# [4] = test system: Candida guillermondii (MY1019); assay: broth microdilution assay (MIC/MFC)
# Experimental: as §1, §2, §3, §4
# [5] = test system: Candida parapsilosis (MY1010); assay: broth microdilution assay (MIC/MFC); details: 24 h, 35-37° C.
# Experimental: as §1, §2, §3, §4
# [6] = test system: Candida pseudotropicalis (MY2099); assay: broth microdilution assay (MIC/MFC)
# Experimental: as §1, §2, §3, §4
# [7] = test system: Candida tropicalis (MY1012); assay: broth microdilution assay (MIC/MFC)
# Experimental: as §1, §2, §3, §4
# [8] = test system: Candida tropicalis (MY1124); assay: broth microdilution assay (MIC/MFC)
# Experimental: as §1, §2, §3, §4
# [9] = test system: Cryptococcus neoformans (MY2061); assay: broth microdilution assay (MIC/MFC)
# Experimental: as §1, §2, §3, §4
# [10] = test system: Cryptococcus neoformans (MY2062); assay: broth microdilution assay (MIC/MFC)
# Experimental: as §1, §2, §3, §4
# [11] = test system: Saccharomyces cerevisiae (MY2140); assay: broth microdilution assay (MIC/MFC)
# Experimental: as §1, §2, §3, §4
# [12] = test system: Saccharomyces cerevisiae (MY2141); assay: broth microdilution assay (MIC/MFC)
# Experimental: as §1, §2, §3, §4
# [13] = test system: Aspergillus fumigatus (MY4839); assay: broth microdilution assay (MIC)
# Experimental: as §1, with “inocula. […]” for “inocula.”
# as §3, with “Growth and sterility controls for each organism and sterility checks for the compounds also were carried out.” left out
# (§5) After recording MICs at 24 hours, the microtiter plates were shaken gently to resuspend the cells. […] For Cryptococcus neoformans, SDA plates were inoculated at 48 hours after recording MICs and incubated 48 hours before reading the MFC. […]
# [14] = test system: Aspergillus fumigatus (MY5668); assay: broth microdilution assay (MIC)
# Experimental: as §1, with “inocula. […]” for “inocula.”
# as §3, with “Growth and sterility controls for each organism and sterility checks for the compounds also were carried out.” left out
# as §5
# panel of fungi = assay: broth microdilution assay against a panel of fungi, comparison with amphotericin B; details: MIC and MFC against a panel of fungi
# Experimental: as §1, with “inocula. […]” for “inocula.”
# as §3, with “Growth and sterility controls for each organism and sterility checks for the compounds also were carried out.” left out
# as §5
# [15] = test system: Aspergillus flavus, Fusarium oxysporum, Ustilago zeae and the like; assay: agar plate inhibition zone test, filamentous fungi; details: agar plates, 28° C. or 37° C., 24 hours, inhibition zones
# [16] = SDA incubated 48 h, no growth or ≤4 colonies
compound,measurement,setting,value
CC(C)C1CCC2C1(C)CCC1(C)C3=CCC4C(C)(C(=O)O)C(O)C(O)C(O)C4(C(=O)O)C3CCC21C (centres unmarked) [Compound II],Minimum Inhibitory Concentration (MIC),"Candida albicans (CA2); 24 h, 35-37° C.",8 µg/mL
same,Minimum Fungicidal Concentration (MFC),Candida albicans (CA2); no growth or ≤4 colonies,8 µg/mL
same,Minimum Inhibitory Concentration (MIC),"[1]; 24 h, 35-37° C.",8 µg/mL
same,Minimum Fungicidal Concentration (MFC),[1]; no growth or ≤4 colonies,8 µg/mL
same,Minimum Inhibitory Concentration (MIC),"[2]; 24 h, 35-37° C.",8 µg/mL
same,Minimum Fungicidal Concentration (MFC),[2]; no growth or ≤4 colonies,8 µg/mL
same,Minimum Inhibitory Concentration (MIC),"[3]; 24 h, 35-37° C.",8 µg/mL
same,Minimum Fungicidal Concentration (MFC),[3]; no growth or ≤4 colonies,8 µg/mL
same,Minimum Inhibitory Concentration (MIC),"[4]; 24 h, 35-37° C.",> 128 µg/mL
same,Minimum Fungicidal Concentration (MFC),[4]; no growth or ≤4 colonies,> 128 µg/mL
same,Minimum Inhibitory Concentration (MIC),[5],32 µg/mL
same,Minimum Inhibitory Concentration (MIC),"[6]; 24 h, 35-37° C.",4 µg/mL
same,Minimum Fungicidal Concentration (MFC),[6]; no growth or ≤4 colonies,4 µg/mL
same,Minimum Inhibitory Concentration (MIC),"[7]; 24 h, 35-37° C.",4 µg/mL
same,Minimum Fungicidal Concentration (MFC),[7]; no growth or ≤4 colonies,8 µg/mL
same,Minimum Inhibitory Concentration (MIC),"[8]; 24 h, 35-37° C.",8 µg/mL
same,Minimum Fungicidal Concentration (MFC),[8]; no growth or ≤4 colonies,8 µg/mL
same,Minimum Fungicidal Concentration (MFC),[9]; [16],4 µg/mL
same,Minimum Inhibitory Concentration (MIC),"[9]; read at 48 h, 35-37° C.",4 µg/mL
same,Minimum Fungicidal Concentration (MFC),[10]; [16],4 µg/mL
same,Minimum Inhibitory Concentration (MIC),"[10]; read at 48 h, 35-37° C.",4 µg/mL
same,Minimum Inhibitory Concentration (MIC),"[11]; 24 h, 35-37° C.",4 µg/mL
same,Minimum Fungicidal Concentration (MFC),[11]; no growth or ≤4 colonies,4 µg/mL
same,Minimum Inhibitory Concentration (MIC),"[12]; 24 h, 35-37° C.",4 µg/mL
same,Minimum Fungicidal Concentration (MFC),[12]; no growth or ≤4 colonies,4 µg/mL
same,Minimum Inhibitory Concentration (MIC),[13],8 µg/mL
same,Minimum Inhibitory Concentration (MIC),[14],> 128 µg/mL
same,effective concentrations compared with amphotericin B,panel of fungi,"effective at concentrations comparable to an established antifungal agent, amphotericin B"
same,inhibition of growth of filamentous fungi,[15],effectively inhibit growth of the fungal organisms
